In patent US10945932B2, “Prebiotic oral care compositions containing carboxylic acids” (COLGATE-PALMOLIVE COMPANY, priority 2013, dated 2021):
Where two headings read alike, the source gives them in different places.

Key:
[1] = test system: beneficial oral bacteria and pathogenic oral bacteria; test: Metabolic activity, prebiotic effect over the whole panel; type: cell-based; conditions: 48 hrs; threshold value of 2
Method: The extent of metabolic activity of the tested bacteria in the presence of the above-mentioned acids after 24 hours and 48 hours was investigated through a high throughput phenotype microarray system (PM) for microbial cells (Biolog Inc.). Each PM can contain up to 95 different biochemical compounds (e.g. organic acids) that may act as substrates for bacteria as well as one negative control, not containing the substrates. Microarray plates were used in which the different wells of each plate were pre-loaded (by the manufacturer, Biolog Inc.) with different organic acids to be tested. Each bacterial species was tested using a separate microarray plate. Thus, a single bacterial species was tested with a variety of organic acids on each particular plate. The microarrays are based on redox technology, using cell respiration as a universal reporter. […] The observation of this color change indicates which of the substrates improve the metabolic activity and health of the cells.
Each bacterial species was collected from blood agar plates (incubated for 48 hours anaerobically at 37° C.) and transferred to an IF-0 Base inoculation fluid (Biolog Inc.), which is a nutritionally poor medium. […] A 1:5 dilution of this suspension was prepared by mixing 3 mL of the 42% transmittance cell suspension with 15 mL of an inoculation fluid (which inoculation fluid was formed by mixing 11.6 mL sterile water, 62.5 mL IF-0 base inoculation fluid and 0.9 mL of the tetrazolium dye “Biolog Redox Dye mix D”), resulting in a final cell density which was equal to 85% transmittance using a BioRad SmartSpec 3000 Photometer. For each of the acids tested, the microarray plate (obtained from the supplier (Biolog Inc.) with acid already present in the relevant wells in powder form) was directly inoculated with 100 μL/well of this 85% transmittance cell suspension.
All plates were incubated in an anaerobic atmosphere at 37° C. Color changes were measured spectrophotometrically at 492 nm (Thermo Scientific Multiskan Ascent) at 24 hrs and 48 hrs using the same plate at both time points.
The controls were also carried out three times, as above.

Streptococcus gordonii = conditions: S gordonii, BHI
Method: (§1) Late exponential growth phase liquid cultures were prepared by transferring the respective bacterium from blood agar plates to BHI and overnight incubation at 37° C. in an anaerobic atmosphere for A. viscosus, V. parvula, F. nucleatum, P. gingivalis, P. intermedia, T forsythia, A. naeslundii, and C. sputigena, and in a 5% CO2 environment for S. salivarius, S. sanguinis, S. mitis, A. actinomycetemcomitans, S. mutans, S. sobrinus and S. gordonii. Overnight cultures were transferred to BHI and adjusted to a concentration of 1×10^7 CFU/ml (colony forming units per ml) by measuring the optical density at 600 nm (OD600) (BioRad SmartSpec 3000). For each strain, 200 μl of the bacterial suspension was added to a 96-well plate containing 20 μl of the respective carboxylic acids. Final concentrations of the carboxylic acids were set to 5, 10, 20 and 25 μmol/ml. […] Plates were incubated as previously described.
(§2) For each combination of bacterium/carboxylic acid, and for each of their respective controls (i.e. the particular bacterium in the nutritionally rich medium with no carboxylic acid), the optical density was measured at 630 nm (OD630) at 0 h, 24 h and 48 h (Thermo Scientific Multiskan Ascent). Additionally, the OD630 for combinations of bacterium/carboxylic acid grown in a 5% CO2 environment were also measured every hour between 0 h and 9 h.
(§3) The experiment was carried out on three different days (thus providing 3 biological replicas) and on each day the experiment was carried out in quadruple (thus providing 4 technical replicas) for each combination of bacterium with carboxylic acid and for each control. For each day and for each combination, the average (mean) of the values obtained (as detailed above) for the four technical replicas was calculated to provide a single value for each combination on each day.

Streptococcus mitis = conditions: S mitis, BHI
Method: as §1, §2, §3

Fusobacterium nucleatum = conditions: F nucleatum, BHI
Method: as §1, §2, §3

[2] = test system: Aggregatibacter actinomycetemcomitans; conditions: A actinomycetemcomitans, BHI
Method: as §1, §2, §3

Porphyromonas gingivalis = conditions: P gingivalis, BHI
Method: as §1, §2, §3

Streptococcus mutans = conditions: S mutans, BHI
Method: as §1, §2, §3

[3] = test system: beneficial oral bacteria and pathogenic oral bacteria; conditions: over 48 hours, threshold value of 1.25
Text: The beneficial oral bacteria tested were Streptococcus mitis, Streptococcus salivarius, Streptococcus sanguinis, Actinomyces viscosus, Streptococcus gordonii, Capnocytophaga sputigena, Actinomyces naeslundii and Veillonella parvula. The pathogenic oral bacteria tested were Streptococcus mutans, Prevotella intermedia, Porphyromonas gingivalis, Fusobacterium nucleatum, Tannerella forsythia, Aggregatibacter actinomycetemcomitans and Streptococcus sobrinus.
as §1, §2, §3
This value was selected in order to exclude low-stimulating metabolites and avoid false positive results.

Veillonella parvula = conditions: V parvula, BHI
Method: as §1, §2, §3

Capnocytophaga sputigena = conditions: C sputigena, BHI
Method: as §1, §2, §3

Streptococcus sanguinis = conditions: S sanguinis, BHI
Method: as §1, §2, §3

Actinomyces naeslundii = conditions: A naeslundii, BHI
Method: as §1, §2, §3

Streptococcus sobrinus = conditions: S sobrinus, BHI
Method: as §1, §2, §3

[4] = test system: beneficial oral bacteria and pathogenic oral bacteria; test: Biofilm growth, prebiotic effect over the whole panel; type: cell-based; conditions: 25 μmol/ml; 48 hours; threshold value of 1.6
Method: Late exponential growth phase liquid cultures were prepared by transferring the respective bacterium from blood agar plates to BHI and overnight incubation at 37° C. in an anaerobic atmosphere for A. viscosus, V. parvula, F. nucleatum, P. gingivalis, P. intermedia, T. forsythia, A. naeslundii, and C. sputigena, and in a 5% CO2 environment for S. salivarius, S. sanguinis, S. mitis, A. actinomycetemcomitans, S. mutans, and S. gordonii. […] Additionally, for each bacterium tested, a background control, to correct for background staining, was added. This background control contained the bacterium tested and 0.03 weight % chlorhexidine, as an antiseptic. Plates were incubated as previously described. After 48 hrs the supernatant was removed from the wells of the plates. The wells were washed twice with 1×100 μL/PBS (phosphate buffered saline), fixed for 20 minutes with 96% vol. ethanol (96% vol. solution in water) and the biofilm retained at the bottom of the wells was stained with 1 weight % crystal violet (1 weight % solution in water). […] Quantification of the stained biofilm was performed by measuring the absorbance at 630 nm using a Multiskan Ascent microplate reader (Thermo Scientific).

Prevotella intermedia = conditions: P intermedia, BHI
Method: as §1, §2, §3

Streptococcus salivarius = conditions: S salivarius, BHI
Method: as §1, §2, §3

N[C@@H](CC(=O)O)C(=O)O [L-aspartic acid]
prebiotic effect (metabolic activity) [1]: exhibited prebiotic effects
extent of growth, maximal OD630 over 48 hr divided by maximal OD of control (control = 1) (Streptococcus gordonii; 5 μmol/ml): 0.9448
extent of growth, maximal OD630 over 48 hr divided by maximal OD of control (control = 1) (Streptococcus gordonii; 10 μmol/ml): 0.9400
extent of growth, maximal OD630 over 48 hr divided by maximal OD of control (control = 1) (Streptococcus gordonii; 20 μmol/ml): 0.9583
extent of growth, maximal OD630 over 48 hr divided by maximal OD of control (control = 1) (Streptococcus gordonii; 25 μmol/ml): 0.9466
extent of growth, maximal OD630 over 48 hr divided by maximal OD of control (control = 1) (Streptococcus mitis; 5 μmol/ml): 1.2333
extent of growth, maximal OD630 over 48 hr divided by maximal OD of control (control = 1) (Streptococcus mitis; 10 μmol/ml): 1.2959
extent of growth, maximal OD630 over 48 hr divided by maximal OD of control (control = 1) (Streptococcus mitis; 20 μmol/ml): 1.2536
extent of growth, maximal OD630 over 48 hr divided by maximal OD of control (control = 1) (Streptococcus mitis; 25 μmol/ml): 1.1257
extent of growth, maximal OD630 over 48 hr divided by maximal OD of control (control = 1) (Fusobacterium nucleatum; 5 μmol/ml): 0.7922
extent of growth, maximal OD630 over 48 hr divided by maximal OD of control (control = 1) (Fusobacterium nucleatum; 10 μmol/ml): 0.7973
extent of growth, maximal OD630 over 48 hr divided by maximal OD of control (control = 1) (Fusobacterium nucleatum; 20 μmol/ml): 0.8395
extent of growth, maximal OD630 over 48 hr divided by maximal OD of control (control = 1) (Fusobacterium nucleatum; 25 μmol/ml): 0.8720
extent of growth, maximal OD630 over 48 hr divided by maximal OD of control (control = 1) ([2]; 5 μmol/ml): 0.7612
extent of growth, maximal OD630 over 48 hr divided by maximal OD of control (control = 1) ([2]; 10 μmol/ml): 0.7493
extent of growth, maximal OD630 over 48 hr divided by maximal OD of control (control = 1) ([2]; 20 μmol/ml): 0.6806
extent of growth, maximal OD630 over 48 hr divided by maximal OD of control (control = 1) ([2]; 25 μmol/ml): 0.6885
extent of growth, maximal OD630 over 48 hr divided by maximal OD of control (control = 1) (Porphyromonas gingivalis; 5 μmol/ml): 1.0608
extent of growth, maximal OD630 over 48 hr divided by maximal OD of control (control = 1) (Porphyromonas gingivalis; 10 μmol/ml): 1.0376
extent of growth, maximal OD630 over 48 hr divided by maximal OD of control (control = 1) (Porphyromonas gingivalis; 20 μmol/ml): 1.0578
extent of growth, maximal OD630 over 48 hr divided by maximal OD of control (control = 1) (Porphyromonas gingivalis; 25 μmol/ml): 1.0084
extent of growth, maximal OD630 over 48 hr divided by maximal OD of control (control = 1) (Streptococcus mutans; 5 μmol/ml): 0.9466
extent of growth, maximal OD630 over 48 hr divided by maximal OD of control (control = 1) (Streptococcus mutans; 10 μmol/ml): 0.9230
extent of growth, maximal OD630 over 48 hr divided by maximal OD of control (control = 1) (Streptococcus mutans; 20 μmol/ml): 0.9036
extent of growth, maximal OD630 over 48 hr divided by maximal OD of control (control = 1) (Streptococcus mutans; 25 μmol/ml): 0.9149
prebiotic effect (extent of growth) ([3]; 10 μmol/ml): exhibited prebiotic effects
prebiotic effect (extent of growth) ([3]; 20 μmol/ml): exhibited prebiotic effects
extent of growth, maximal OD630 over 48 hr divided by maximal OD of control (control = 1) (Veillonella parvula; 5 μmol/ml): 1.0851
extent of growth, maximal OD630 over 48 hr divided by maximal OD of control (control = 1) (Veillonella parvula; 10 μmol/ml): 1.1168
extent of growth, maximal OD630 over 48 hr divided by maximal OD of control (control = 1) (Veillonella parvula; 20 μmol/ml): 1.1378
extent of growth, maximal OD630 over 48 hr divided by maximal OD of control (control = 1) (Veillonella parvula; 25 μmol/ml): 1.1498
extent of growth, maximal OD630 over 48 hr divided by maximal OD of control (control = 1) (Capnocytophaga sputigena; 5 μmol/ml): 0.9521
extent of growth, maximal OD630 over 48 hr divided by maximal OD of control (control = 1) (Capnocytophaga sputigena; 10 μmol/ml): 0.9529
extent of growth, maximal OD630 over 48 hr divided by maximal OD of control (control = 1) (Capnocytophaga sputigena; 20 μmol/ml): 0.9776
extent of growth, maximal OD630 over 48 hr divided by maximal OD of control (control = 1) (Capnocytophaga sputigena; 25 μmol/ml): 0.9489
extent of growth, maximal OD630 over 48 hr divided by maximal OD of control (control = 1) (Streptococcus sanguinis; 5 μmol/ml): 0.8662
extent of growth, maximal OD630 over 48 hr divided by maximal OD of control (control = 1) (Streptococcus sanguinis; 10 μmol/ml): 0.8606
extent of growth, maximal OD630 over 48 hr divided by maximal OD of control (control = 1) (Streptococcus sanguinis; 20 μmol/ml): 0.8622
extent of growth, maximal OD630 over 48 hr divided by maximal OD of control (control = 1) (Streptococcus sanguinis; 25 μmol/ml): 0.8613
extent of growth, maximal OD630 over 48 hr divided by maximal OD of control (control = 1) (Actinomyces naeslundii; 5 μmol/ml): 0.8893
extent of growth, maximal OD630 over 48 hr divided by maximal OD of control (control = 1) (Actinomyces naeslundii; 10 μmol/ml): 0.8774
extent of growth, maximal OD630 over 48 hr divided by maximal OD of control (control = 1) (Actinomyces naeslundii; 20 μmol/ml): 0.9021
extent of growth, maximal OD630 over 48 hr divided by maximal OD of control (control = 1) (Actinomyces naeslundii; 25 μmol/ml): 0.8435
extent of growth, maximal OD630 over 48 hr divided by maximal OD of control (control = 1) (Streptococcus sobrinus; 5 μmol/ml): 0.9714
extent of growth, maximal OD630 over 48 hr divided by maximal OD of control (control = 1) (Streptococcus sobrinus; 10 μmol/ml): 0.9741
extent of growth, maximal OD630 over 48 hr divided by maximal OD of control (control = 1) (Streptococcus sobrinus; 20 μmol/ml): 0.9458
extent of growth, maximal OD630 over 48 hr divided by maximal OD of control (control = 1) (Streptococcus sobrinus; 25 μmol/ml): 0.9644
prebiotic effect (biofilm growth) [4]: exhibited prebiotic effects
extent of growth, maximal OD630 over 48 hr divided by maximal OD of control (control = 1) (Prevotella intermedia; 5 μmol/ml): 1.0755
extent of growth, maximal OD630 over 48 hr divided by maximal OD of control (control = 1) (Prevotella intermedia; 10 μmol/ml): 1.1717
extent of growth, maximal OD630 over 48 hr divided by maximal OD of control (control = 1) (Prevotella intermedia; 20 μmol/ml): 1.1438
extent of growth, maximal OD630 over 48 hr divided by maximal OD of control (control = 1) (Prevotella intermedia; 25 μmol/ml): 1.1396
extent of growth, maximal OD630 over 48 hr divided by maximal OD of control (control = 1) (Streptococcus salivarius; 5 μmol/ml): 0.9808
extent of growth, maximal OD630 over 48 hr divided by maximal OD of control (control = 1) (Streptococcus salivarius; 10 μmol/ml): 0.9975
extent of growth, maximal OD630 over 48 hr divided by maximal OD of control (control = 1) (Streptococcus salivarius; 20 μmol/ml): 1.0719
extent of growth, maximal OD630 over 48 hr divided by maximal OD of control (control = 1) (Streptococcus salivarius; 25 μmol/ml): 0.9943
